Results from PubChem BioAssay (NCI).
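These data come from cells grown in 96-well plates and exposed to compound for 48 hours at five concentrations. TGI: total growth inhibition.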

What was measured:
Experiment in all cases: NCI tumour cell line growth inhibition, 48 h
RPMI-8226 leukemia = system: RPMI-8226 leukemia
SW-620 colon = system: SW-620 colon
SK-MEL-28 melanoma = system: SK-MEL-28 melanoma
DLD-1 colon = system: DLD-1 colon
M14 melanoma = system: M14 melanoma
TK-10 renal = system: TK-10 renal
HL-60(TB) leukemia = system: HL-60(TB) leukemia
UO-31 renal = system: UO-31 renal
CAKI-1 renal = system: CAKI-1 renal
RXF 393 renal = system: RXF 393 renal
HCT-116 colon = system: HCT-116 colon
ACHN renal = system: ACHN renal
HCC-2998 colon = system: HCC-2998 colon
CCRF-CEM leukemia = system: CCRF-CEM leukemia
NCI-H522 lung = system: NCI-H522 lung
MOLT-4 leukemia = system: MOLT-4 leukemia
786-0 renal = system: 786-0 renal
SF-268 CNS = system: SF-268 CNS
COLO 205 colon = system: COLO 205 colon
K-562 leukemia = system: K-562 leukemia
SF-539 CNS = system: SF-539 CNS
SF-295 CNS = system: SF-295 CNS
NCI-H226 lung = system: NCI-H226 lung
UACC-62 melanoma = system: UACC-62 melanoma
A549 NSCLC = system: A549 NSCLC
EKVX NSCLC = system: EKVX NSCLC
UACC-257 melanoma = system: UACC-257 melanoma
SK-OV-3 ovarian = system: SK-OV-3 ovarian
OVCAR-8 ovarian = system: OVCAR-8 ovarian
SNB-19 CNS = system: SNB-19 CNS
NCI-H460 lung = system: NCI-H460 lung
M19-MEL melanoma = system: M19-MEL melanoma
KM20L2 colon = system: KM20L2 colon
SR leukemia = system: SR leukemia
HOP-18 NSCLC = system: HOP-18 NSCLC
HOP-62 NSCLC = system: HOP-62 NSCLC
OVCAR-3 ovarian = system: OVCAR-3 ovarian
U251 CNS = system: U251 CNS
SK-MEL-5 melanoma = system: SK-MEL-5 melanoma
HCT-15 colon = system: HCT-15 colon
OVCAR-5 ovarian = system: OVCAR-5 ovarian
NCI-H23 lung = system: NCI-H23 lung
SNB-78 CNS = system: SNB-78 CNS
HOP-92 NSCLC = system: HOP-92 NSCLC
DMS 273 small cell lung = system: DMS 273 small cell lung
IGROV1 ovarian = system: IGROV1 ovarian
LOX IMVI melanoma = system: LOX IMVI melanoma
A498 renal = system: A498 renal
SN12C renal = system: SN12C renal
OVCAR-4 ovarian = system: OVCAR-4 ovarian
SNB-75 CNS = system: SNB-75 CNS
HT29 colon = system: HT29 colon
MALME-3M melanoma = system: MALME-3M melanoma
SK-MEL-2 melanoma = system: SK-MEL-2 melanoma
DMS 114 small cell lung = system: DMS 114 small cell lung
KM12 colon = system: KM12 colon
LXFL 529 NSCLC = system: LXFL 529 NSCLC

With `CN(C)CCNC(=O)C1COc2cc(-c3cc(=O)c4ccccc4o3)ccc2O1` (stereo not drawn) the TGI (RPMI-8226 leukemia) was 85.1 µM, the TGI (SW-620 colon) was 44.5 µM and the TGI (SK-MEL-28 melanoma) was 36 µM. It also gave a TGI (DLD-1 colon) greater than 100 µM, a TGI (M14 melanoma) of 32 µM and a TGI (TK-10 renal) of 75.9 µM. It also gave a TGI (HL-60(TB) leukemia) of 58.9 µM, a TGI (UO-31 renal) greater than 100 µM and a TGI (CAKI-1 renal) of 38.3 µM. The TGI (RXF 393 renal) was 38.8 µM, the TGI (HCT-116 colon) was 29.6 µM and the TGI (ACHN renal) was 33.1 µM. The TGI (HCC-2998 colon) was greater than 100 µM, the TGI (CCRF-CEM leukemia) was greater than 100 µM and the TGI (NCI-H522 lung) was 31 µM. The TGI (MOLT-4 leukemia) was 40.7 µM, the TGI (786-0 renal) was 36.3 µM and the TGI (SF-268 CNS) was 50.9 µM. For the same compound, the TGI (COLO 205 colon) was 31.7 µM, the TGI (K-562 leukemia) was greater than 100 µM and the TGI (SF-539 CNS) was 32.9 µM. The TGI (SF-295 CNS) was 93.6 µM, the TGI (NCI-H226 lung) was 49 µM and the TGI (UACC-62 melanoma) was 34.9 µM. The TGI (A549 NSCLC) was 35.5 µM, the TGI (EKVX NSCLC) was greater than 100 µM and the TGI (UACC-257 melanoma) was 34.7 µM. It also gave a TGI (SK-OV-3 ovarian) of 53.8 µM, a TGI (OVCAR-8 ovarian) of 70.1 µM and a TGI (SNB-19 CNS) of 57.8 µM. The TGI (NCI-H460 lung) was greater than 100 µM, the TGI (M19-MEL melanoma) was greater than 100 µM and the TGI (KM20L2 colon) was 56.5 µM. It also gave a TGI (SR leukemia) of 39.5 µM, a TGI (HOP-18 NSCLC) of 56 µM and a TGI (HOP-62 NSCLC) greater than 100 µM. It also gave a TGI (OVCAR-3 ovarian) of 43.7 µM, a TGI (U251 CNS) of 40.3 µM and a TGI (SK-MEL-5 melanoma) of 28.8 µM. It also gave a TGI (HCT-15 colon) greater than 100 µM, a TGI (OVCAR-5 ovarian) greater than 100 µM and a TGI (NCI-H23 lung) greater than 100 µM. The TGI (SNB-78 CNS) was 57.8 µM, the TGI (HOP-92 NSCLC) was greater than 100 µM and the TGI (DMS 273 small cell lung) was 36.3 µM. For the same compound, the TGI (IGROV1 ovarian) was 48.3 µM, the TGI (LOX IMVI melanoma) was 38.3 µM and the TGI (A498 renal) was 33.7 µM. For the same compound, the TGI (SN12C renal) was 78.8 µM, the TGI (OVCAR-4 ovarian) was 33.2 µM and the TGI (SNB-75 CNS) was 43.1 µM. For the same compound, the TGI (HT29 colon) was 34.6 µM and the TGI (MALME-3M melanoma) was 36.2 µM.

With `CCN(CC)c1c(C(=O)/C=C/c2ccc(F)cc2)c(-c2ccccc2)nn(C)c1=O` the TGI (SK-MEL-2 melanoma) was 16.7 µM, the TGI (RPMI-8226 leukemia) was 9.89 µM and the TGI (SW-620 colon) was 34.8 µM. The TGI (DMS 114 small cell lung) was 19.2 µM, the TGI (SK-MEL-28 melanoma) was 31.5 µM and the TGI (DLD-1 colon) was 26.7 µM. It also gave a TGI (KM12 colon) of 18.9 µM, a TGI (M14 melanoma) of 25.6 µM and a TGI (TK-10 renal) of 38.5 µM. For the same compound, the TGI (HL-60(TB) leukemia) was 15.7 µM, the TGI (UO-31 renal) was 24.4 µM and the TGI (LXFL 529 NSCLC) was 19.9 µM. The TGI (CAKI-1 renal) was 69.6 µM, the TGI (RXF 393 renal) was 11 µM and the TGI (HCT-116 colon) was 14.5 µM. For the same compound, the TGI (ACHN renal) was 20.6 µM, the TGI (HCC-2998 colon) was 10.5 µM and the TGI (CCRF-CEM leukemia) was 6.82 µM. It also gave a TGI (NCI-H522 lung) of 13.9 µM, a TGI (MOLT-4 leukemia) of 5.91 µM and a TGI (786-0 renal) of 23.2 µM. For the same compound, the TGI (SF-268 CNS) was 35.8 µM, the TGI (COLO 205 colon) was 14.8 µM and the TGI (K-562 leukemia) was 34.1 µM. For the same compound, the TGI (SF-295 CNS) was 34 µM, the TGI (NCI-H226 lung) was 34 µM and the TGI (UACC-62 melanoma) was 33.1 µM. It also gave a TGI (A549 NSCLC) of 43.2 µM, a TGI (EKVX NSCLC) of 55.3 µM and a TGI (UACC-257 melanoma) of 21.2 µM. For the same compound, the TGI (SK-OV-3 ovarian) was 60.8 µM, the TGI (OVCAR-8 ovarian) was 19.1 µM and the TGI (SNB-19 CNS) was 58.4 µM. For the same compound, the TGI (NCI-H460 lung) was 18.8 µM, the TGI (M19-MEL melanoma) was 25.1 µM and the TGI (KM20L2 colon) was 44.4 µM. It also gave a TGI (HOP-18 NSCLC) of 58.4 µM, a TGI (HOP-62 NSCLC) of 28.6 µM and a TGI (OVCAR-3 ovarian) of 21.2 µM. It also gave a TGI (U251 CNS) of 19.1 µM, a TGI (SK-MEL-5 melanoma) of 21.1 µM and a TGI (HCT-15 colon) of 25.7 µM. It also gave a TGI (OVCAR-5 ovarian) of 41.9 µM, a TGI (NCI-H23 lung) of 16.5 µM and a TGI (SNB-78 CNS) of 44.9 µM. For the same compound, the TGI (HOP-92 NSCLC) was 19.4 µM, the TGI (DMS 273 small cell lung) was 21 µM and the TGI (IGROV1 ovarian) was 21.9 µM. It also gave a TGI (LOX IMVI melanoma) of 23.6 µM, a TGI (A498 renal) of 21.1 µM and a TGI (SN12C renal) of 21.8 µM. It also gave a TGI (OVCAR-4 ovarian) of 20.5 µM, a TGI (SNB-75 CNS) of 22.5 µM and a TGI (HT29 colon) of 18.6 µM. For the same compound, the TGI (MALME-3M melanoma) was 27.8 µM.
